Measured values from patent US20080200393A1, “Method and Composition For Treating Angiogenesis and For Preventing Cancer Progression and Metastasis Comprising a Prostate Secretory Protein (Psp94) Family Member” (Ambrillia Biopharma Inc., priority 2004, published 2008).
Where no end group is shown, it is not given here.

How the values were obtained:
MMP-9 = test: Western blot of MMP-9 in MatLyLu cell culture media; type: cell-based; settings: MatLyLu cells, 100 ug/ml, 500 ug/ml and 1 mg/ml, 72 hrs
Description: A separate western blot experiment was performed in which MatLyLu cells were treated with 100 ug/ml, 500 ug/ml and 1 mg/ml of the PCK3145 derivative for 72 hrs. At the end of the experiment, the media were collected and concentrated 5 times using Amicon centrifugal filter devices (3500 molecular weight cut-off).
Twenty five microliters samples were separated on SDS-PAGE gel under reducing conditions using pre-cast gels of 4-12% Bis-Tris (Invitrogen). Following electrophoresis, the proteins were transferred on nitrocellulose membrane. Non-specific binding sites were blocked using 5% skimmed milk in 10 mM phosphate buffer saline (PBS) containing 0.05% Tween-20 for 1 hour at room temperature. The membrane was later incubated with a primary antibody (monoclonal, RDI-MMP-9abm-2A5) at a concentration of 1 ug/ml (in 10 mM PBS, containing 0.5% bovine serum albumin (BSA) and 0.05% Tween-20) for 3 hours at room temperature.
The membranes were washed three times in PBS (5 minutes each wash) to remove non-specific binding and they were incubated with the secondary antibody (Rabbit anti-mouse IgG horseradish peroxidase-conjugated (Dako no. 0260)) at a dilution of 1:5000 for one hour. Detection of specific MMP-9 protein was made by incubating the membrane in ECL™ reagent (electro-chemoluminescence, Roche) and exposing to the X-ray film.

proMMP-2 = test: Gelatin zymography of HUVEC conditioned media; type: cell-based, Human
Description: Zymography. Zymography is a technique generally used to analyze the activity of matrix metalloproteinases (MMPs) in biological samples. It involves the electrophoretic separation of proteins under denaturing (Sodium Dodecyl Sulfate (SDS)) but non-reducing conditions through a polyacrylamide gel containing gelatin (for example, 10% gel containing 1 mg/ml gelatin for MMP-9 and MMP-2 assays). The resolved proteins are re-natured by exchanging SDS with a non-ionic detergent such as Triton X-100 and the gel is incubated in an incubation buffer for activation of MMP-2 and MMP-9 (for example at 37° C. for 18 hrs). The gel is stained with Coomassie blue and the MMP-2 and MMP-9 bands may be visualized as clear bands against a blue background (i.e., the MMPs degrade the gelatin and are visualized as clear bands; pro MMP-2 is 68 kDa and pro-MMP-9 is 92 kDa). These bands can be quantified using densitometry. For example, prior to stimulation, quiescent HUVEC were serum-starved for 16 h in the presence or absence of PCK3145 or PD98059 and then stimulated with VEGF. The conditioned media were collected 24 h after stimulation, and clarified by centrifugation. Identical volume of conditioned media were mixed with non reducing Laemmli sample buffer and subjected to 7.5% SDS-polyacrylamide gels containing 1 mg/ml gelatin (Sigma). The gels were then incubated for 30 min at room temperature twice in 2.5% (v/v) Triton X-100 and rinsed five times in doubly distilled water. The gels were incubated at 37° C. for a further 18 h in 200 mM NaCl/5 mM CaCl2/0.02% (v/v) Brij-35/50 mM Tris/HCl buffer (pH 7.6), then stained with 0.1% Coomassie Brilliant Blue R-250, followed by destaining in 10% (v/v) acetic acid/30% (v/v) methanol in water. Gelatinolytic activity was detected as unstained bands on a blue background.
The effect of the PCK3145 derivative (SEQ ID NO.:7) on MMP extracellular levels was thus assessed by gelatin-zymography in the conditioned media of serum-starved HUVEC. After 16 hours of starvation, HUVEC were stimulated with VEGF in the presence or not of the PCK3145 derivative. […]

U-87 cells = test: U-87 cell adhesion to hyaluronic acid; type: cell-based; settings: U-87, 300 ug/ml, 48 hrs; adhesion 3 hours; three independent experiments
Description: ECM recognition is a crucial event in the cell adhesion processes involved in tumor progression. This process is mediated and regulated through specialized cell surface receptors or integrins. […] U-87 cells were treated with the PCK3145 derivative (300 ug/ml, 48 hrs), trypsinised, counted, and seeded on wells coated with 10 ug/ml BSA (bovine serum albumin) or HA. Cells were allowed to adhere for 3 hours. Three independent experiments were performed. […] One such potential intracellular protein is the GTPase RhoA, which is likely to mediate mechanisms regulating cytoskeletal morphogenesis.

MT1-MMP = MT1-MMP expression in U-87 cells; type: cell-based; settings: 300 ug/ml

How did the “MMP-9 levels (western blot)” value (MMP-9) turn out when “EWQTDNCETCTCYET (cysteine pairing not given here) [PCK3145 derivative, PCK3145 derivative with acetylaminomethyl groups on the three cysteines]” was run?
Its value is “dose-dependent reduction”.

What about the “inhibition of VEGF-induced proMMP-2 secretion” value (proMMP-2; HUVEC, 300 μg/ml) of the same sequence?
Its value is “approximately 50%”.

What about the “downregulation of basal proMMP-2 levels in the extracellular media” value (proMMP-2; serum-starved HUVEC, 24 hours treatment) of the same sequence?
The value was “approximately 35%”.

What about the “diminution of cell adhesion on HA” value (U-87 cells) of the same sequence?
The value was 45-76%.

And the MT1-MMP expression (MT1-MMP)?
Its MT1-MMP expression is “slight increase”.
